Measured values from patent US6423740B1, “Chalcones having antiproliferative activity” (Indena S.p.A., priority 1997, dated 2002).

Legend:
[1] = test system: MCF7 ADRr; assay: Antiproliferation activity in vitro, cell count after 72 hours, adriamycin-resistant breast tumoral line; assay type: cell-based; settings: MCF7 ADRr adriamycin-resistant human breast tumoral line, read-out: IC50 (MCF7 ADRr), concentration causing 50% inhibition of the cell proliferation
Experimental: (§1) The various compounds under test, dissolved in ethyl alcohol, were added at serial dilutions and the treated cells and control cells were incubated with ^3H-estradiol or in the presence of diethylstilbestrol according to the methods described by literature. The antiproliferation activity were verified in the same way by adding the compounds, dissolved in DMSO, to the medium and performing a cell count after 72 hours.

[2] = test system: MDA-MB231; assay: Antiproliferation activity in vitro, cell count after 72 hours, sensitive breast tumoral line; assay type: cell-based; settings: MDA-MB-231, MDA-MB231 sensitive human breast tumoral line, read-out: IC50 (MDA-MB231), concentration causing 50% inhibition of the cell proliferation
Experimental: as §1

[3] = test system: type II estrogen receptors; assay: Binding to type II estrogen receptors, displacement of 3H-estradiol in tumor cells; settings: read-out: IC50, concentration causing 50% displacement of the estradiol labelled by its own receptor
Experimental: The binding to type II estrogen receptors was evaluated in ovarian tumor cells and tumor cells of other target organs. The cells were grown in a single layer according to the known techniques reported in the literature. To make the test reproducibility, the cells were trypsin treated, every week and placed on plates at a density of 8×10^4 cells/cm^2 and incubated at 37° C. in air containing 5% CO2.
as §1

Structure (SMILES) | IC50 [1] [µM] | melting point [°C] | IC50 [2] [µM] | IC50 [3] [µM]
CC(C)=CCOc1ccc(C(=O)C=Cc2ccncc2)c(O)c1 [Compound I, 1-[2-Hydroxy-4-(3-methylbut-2-enyloxy)-phenyl]-3(pyridine-4-yl)-propen-1-one] | 2.8 | 99 to 100 | 3.2 | 1.1
CC(C)=CCOc1ccc(C(=O)C=Cc2cccnc2)c(O)c1 [Compound II, 1-[2-Hydroxy-4-(3-methylbut-2-enyloxy)-phenyl]-3(pyridine-3-yl)-propen-1-one] | 2.2 | 177 to 179 | 3.2 | 3.3
CC(=O)Nc1ccc(C=CC(=O)c2ccc(OCC=C(C)C)cc2O)cc1 [Compound III, 1-[2-hydroxy-4-(3-methylbut-2-enyloxy)-phenyl]-3-(4-acetamidophenyl)-propen-1-one] | 7 | – | 8.2 | 4.2
C=C(C)COc1ccc(C(=O)C=Cc2ccc(N(C)C)cc2)c(O)c1 [Compound IV, 1-[2-hydroxy-4-(2-methylallyloxy)-phenyl]-3-(4-dimethylaminophenyl)-propen-1-one] | 9.4 | 85 to 87 | 7.5 | 1.7
C=C(C)COc1ccc(C(=O)C=Cc2cccc(OC)c2)c(O)c1 [Compound IX, 1-[2-hydroxy-4-(2-methylallyloxy)-phenyl]-3-(3-methoxyphenyl)-propen-1-one] | 8.9 | 97 to 100 | 5 | 3.1
CC(C)=CCOc1ccc(C(=O)C=Cc2c[nH]c3ccccc23)c(O)c1 [Compound V, 1-[2-hydroxy-4-(3-methylbut-2-enyloxy)-phenyl]-3-(indole-3-yl)-propen-1-one] | 6.8 | – | 11 | 2.8
C=C(C)COc1ccc(C(=O)C=Cc2c[nH]c3ccccc23)c(O)c1 [Compound VI, 1-[2-Hydroxy-4-(2-methylallyloxy)-phenyl]-3-(indole-3-yl)-propen-1-one] | 8.8 | – | 9.6 | 3.4
C#CCOc1ccc(C(=O)C=Cc2c[nH]c3ccccc23)c(O)c1 [Compound VII, 1-[2-hydroxy-4-(prop-2-ynyloxy)-phenyl]-3-(indole-3-yl)propen-1-one] | 9.4 | – | 7.1 | 5.2
C=C(C)COc1ccc(C(=O)C=Cc2cccnc2)c(O)c1 [Compound VIII, 1-[2-Hydroxy-4-(2-methylallyloxy)-phenyl]-3-(pyridine-3-yl)-propen-1-one] | 6 | 164 to 166 | 5.4 | 4
C#CCOc1ccc(C(=O)C=Cc2cccnc2)c(O)c1 [Compound X, 1-[2-hydroxy-4-(prop-2-ynyloxy)-phenyl]-3-(pyridine-3-yl)propen-1-one] | 3.7 | 115 to 117 | 3.7 | 2.8
CC(C)=CCOc1ccc(C(=O)C=Cc2cccs2)c(O)c1 [Compound XI, 1-(2-Hydroxy-4-(3-methylbut-2-enyloxy)-phenyl)-3-(2-thienyl)-propen-1-one] | 3.6 | – | 4.1 | 1.4
C=C(C)COc1ccc(C(=O)C=Cc2cccs2)c(O)c1 [Compound XII, 1-(2-Hydroxy-4-(2-methylallyloxy)-phenyl)-3-(2-thienyl)-propen-1-one] | 3.9 | – | 5.3 | 2.7
C#CCOc1ccc(C(=O)C=Cc2cccs2)c(O)c1 [Compound XIII, 1-(2-Hydroxy-4-(prop-2-ynyloxy)-phenyl)-3-(2-thienyl)-propen-1-one] | 5.1 | – | 4.9 | 4.3
CC(C)=CCOc1ccc(C(=O)C=Cc2ccco2)c(O)c1 [Compound XIV, 1-(2-Hydroxy-4-(3-methylbut-2-enyloxy)-phenyl)-3-(2-furyl)-propen-1-one] | 6.3 | – | 5.7 | 3.2
CC(C)=CCOc1ccc(C(=O)C=Cc2ccc(F)cc2)c(O)c1 [Compound XIX, 1-(2-Hydroxy-4-(3-methylbut-2-enyloxy)-phenyl)-3-(4-fluorophenyl)-propen-1-one] | – | 96 to 97 | – | –
C=C(C)COc1ccc(C(=O)C=Cc2ccccc2)c(O)c1 [Compound XV, 1-(2-Hydroxy-4-(2-methylallyloxy)-phenyl)-3-(phenyl)-propen-1-one] | 7.1 | – | 10.7 | 2.9
C#CCOc1ccc(C(=O)C=Cc2ccccc2)c(O)c1 [Compound XVI, 1-(2-Hydroxy-4-(prop-2-ynyloxy)-phenyl)-3-(phenyl)-propen-1-one] | 8.4 | – | 8.9 | 4.4
C=C(C)COc1ccc(C(=O)C=Cc2ccc(OC)cc2OC)c(O)c1 [Compound XVII, 1-(2-Hydroxy-4-(2-methylallyloxy)-phenyl)-3-(2,4-dimethoxyphenyl)-propen-1-one] | 5.6 | 106 to 107 | 4.3 | 5.5
C=C(C)COc1ccc(C(=O)C=Cc2ccc(Br)cc2)c(O)c1 [Compound XVIII, 1-(2-Hydroxy-4-(2-methylallyloxy)-phenyl)-3-(4-bromophenyl)-propen-1-one] | – | 121 to 122 | – | –
CC(C)=CCOc1ccc(C(=O)C=Cc2cccc([N+](=O)[O-])c2)c(O)c1 [Compound XX, 1-(2-Hydroxy-4-(3-methylbut-2-enyloxy)-phenyl)-3-(3-nitrophenyl)-propen-1-one] | – | 125 to 126 | – | –
CC(C)=CCOc1ccc(C(=O)C=Cc2c(Cl)cccc2Cl)c(O)c1 [Compound XXI, 1-(2-Hydroxy-4-(3-methylbut-2-enyloxy)-phenyl)-3-(2,6-dichlorophenyl)-propen-1-one] | – | 101 to 102 | – | –
CC(C)=CCOc1ccc(C(=O)C=Cc2ccc(C(F)(F)F)cc2)c(O)c1 [Compound XXII, 1-(2-Hydroxy-4-(3-methylbut-2-enyloxy)-phenyl)-3-(4-trifluoromethylphenyl)-propen-1-one] | – | 122 to 123 | – | –
C#CCOc1ccc(C(=O)C=Cc2c(OC)cc(OC)cc2OC)c(O)c1 [Compound XXIII, 1-(2-Hydroxy-4-(prop-2-ynyloxy)-phenyl)-3-(2,4,6-trimethoxyphenyl)-propen-1-one] | – | 177 to 179 | – | –
C#CCOc1ccc(C(=O)C=Cc2ccc(C#N)cc2)c(O)c1 [Compound XXIV, 1-(2-Hydroxy-4-(prop-2-ynyloxy)-phenyl)-3-(4-cyanophenyl)-propen-1-one] | – | 188 to 190 | – | –
CC(C)=CCOc1ccc(C(=O)C=Cc2ccc(C)cc2)c(O)c1 [Compound XXV, 1-(2-Hydroxy-4-(3-methylbut-2-enyloxy)-phenyl)-3-(4-methylphenyl)-propen-1-one] | – | 108 to 109 | – | –
CSc1ccc(C=CC(=O)c2ccc(OCC=C(C)C)cc2O)cc1 [Compound XXVI, 1-(2-Hydroxy-4-(3-methylbut-2-enyloxy)-phenyl)-3-(4-methylthiophenyl)-propen-1-one] | – | 130 to 131 | – | –
